# Test results taken from patent US8658647B2, “Integrin-linked kinase inhibitors” (The Ohio State University Research Foundation, priority 2010, dated 2014).
# pIC50: −log10 of the molar value.
# Assays:
# [1] = system: prostate (PC-3, LNCaP) and breast cancer (MDA-MB-468, MDA-MB-231, CAL51, MCF-7, SKBR3) cell lines vs nonmalignant prostate (PrEC) and mammary epithelial cells …; experiment: MTT cell viability in panel of prostate and breast cancer cell lines vs nonmalignant epithelial cells; type: cell-based, human; details: 12, 24 or 48 h
# Description: Time- and/or dose-dependent effects of compound 2 on cell viability in (A) prostate cancer (PC-3, LNCaP) and nonmalignant prostate epithelial cells (PrEC), and (B) breast cancer (MDA-MB-468, MDA-MB-231, CAL51, MCF-7, SKBR3) and nonmalignant mammary epithelial cells (MEC) were determined. Cells were treated for 12, 24 or 48 h at the indicated concentrations and cell viability determined by MTT assays. Points, mean; bars, ±SD.
# As structurally related compounds 2 and 3 differ only in that the N-alkyl moiety, i.e., methyl versus ethyl, compound 2 was selected for more thorough evaluation. Dose- and time-dependent effects of compound 2 on cell viability were determined in a panel of two prostate (PC-3, LNCaP) and five breast cancer (MDA-MB-468, MDA-MB-231, CAL51, MCF-7, SKBR3) cell lines (FIGS. 3A and B). Moreover, cancer cell lines were also evaluated in parallel with nonmalignant prostate and mammary epithelial cells (FIG. 3A, lower panel; 3B lower right panel).
# [2] = system: PC-3 human prostate cancer cells; experiment: MTT cell viability assay in PC-3 cells; type: cell-based; details: 24 h, 5% FBS; for pIC50: Homo sapiens, read-out: IC50, antiproliferative activity
# Description: (§1) FIG. 2 provides (A) Western blot analysis of the effects of compounds 1-9 on Akt phosphorylation at the PDK1 (T308) and PDK2 (S473) sites in PC-3 human prostate cancer cells after 24 h treatment at 2.5 μM in the presence of 5% fetal bovine serum (FBS), and (B) Dose-dependent effects of compounds 1-9 on the viability of PC-3 cells treated as described above in A. Cell viability was assessed by MTT assay. Points, mean; bars, ±SD.
# (§2) FIG. 5 provides the results from the screening of compounds 10-13. (A) Dose-dependent effects of compounds 10-13 and 2 on the viability of PC-3 cells after 24 h treatment […] in the presence of 5% FBS. Cell viability was assessed by MTT assay. Points, mean; bars, ±SD. (B) Western blot analysis of the effects of compounds 2 and 13 on the phosphorylation status of downstream targets of ILK in PC-3 cells.
# (§3) In another series of tests, Compounds 10-13 were screened for antiproliferative activity, in parallel with compound 2, by MTT assay in PC-3 human prostate cancer cells. […] The effects of compound 13, vs. compound 2, on the phosphorylation status of downstream targets of ILK in PC-3 cells were evaluated by western blotting.
# [3] = system: Akt phosphorylation at the PDK2 site [S473] versus the PDK1 site [T308]; experiment: Western blot of Akt phosphorylation at PDK2 (S473) vs PDK1 (T308) sites in PC-3 cells; type: cell-based, human; details: 24 h, 2.5 μM, 5% FBS
# Description: as §1
# [4] = system: PC-3 tumor xenografts; experiment: PC-3 prostate tumor xenograft model, oral dosing; type: in vivo; details: 35 days
# Description: PC-3 tumors were established in male athymic nude mice by subcutaneous injection of 5×10^5 PC-3 cells in a total volume of 0.1 ml serum-free medium containing 50% Matrigel. Mice with established tumors were randomized to three groups receiving the indicated treatments once daily by gavage for 35 days. Tumor sizes and body weights were measured weekly. Points, mean tumor volume; bars, ±SD.
# The In vivo tumor suppressive activity of compound 2 in the PC-3 prostate tumor xenograft model was also evaluated. Based on the results described above, compound 2 was identified as the lead agent for development as a novel ILK/PDK2 inhibitor. To evaluate the in vivo antitumor activity of compound 2, athymic nude mice bearing established subcutaneous PC-3 tumor xenografts (mean starting tumor volume, 157.1±29.1 mm^3) were treated orally for 35 days with compound 2 at 25 or 50 mg/kg once daily or with vehicle (0.5% methylcellulose and 0.1% Tween 80 in sterile water) (n=5 mice). […] The in vivo efficacy of compound 2 after oral administration indicates its oral bioavailability.
# [5] = system: downstream targets of ILK (Akt-S473; GSK3β-S9); experiment: Western blot of downstream targets of ILK, dose-dependent (FIG. 4); type: cell-based, human; details: PC-3 and MDA-MB-468 cells, 24 h, 5% FBS
# Description: FIG. 4 provides evidence that Compound 2 suppresses the ILK signaling pathway. Western blot analysis of the dose-dependent effect of Compound 2 on downstream targets of ILK (Akt-S473; GSK3β-S9) in PC-3 and […] cells. Cells were treated for 24 h at the indicated concentrations in the presence of 5% FBS.
# Based on western blot data showing the selective reduction in phospho-Akt-S473 levels relative to those of phospho-Akt-T308 (FIG. 2A), compound 2 was identified as an inhibitor of PDK2 activity. To evaluate compound 2 for the ability to inhibit ILK signaling, its effect on downstream targets of ILK was assessed in PC-3 and MDA-MB-468 cells by Western blotting (FIG. 4).
# [6] = system: downstream targets of ILK; experiment: Western blot of phosphorylation status of downstream targets of ILK in PC-3 cells (FIG. 5B); type: cell-based, human
# Description: as §2, §3
# [7] = system: SKBR3 human breast cancer cells; experiment: MTT cell viability assay in SKBR3 cells; type: cell-based; details: SK-BR-3, 24 h, 5% FBS, read-out: IC50, antiproliferative activity
# Description: (§4) Dose-dependent effects of compounds 4-9 in MCF-7 (upper panel) and SKBR3 (lower) cells after 24 h treatment in the presence of 5% FBS. Cell viability was assessed by MTT assay. Points, mean; bars, ±SD.
# (§5) Compounds 4-9, which were screened previously in a prostate cancer cell line (FIG. 2), were evaluated for antiproliferative activity in MCF-7 and SKBR3 human breast cancer cells.
# [8] = system: MCF-7 human breast cancer cells; experiment: MTT cell viability assay in MCF-7 cells; type: cell-based; details: MCF7, 24 h, 5% FBS, read-out: IC50, antiproliferative activity
# Description: as §4, §5
smiles,measurement,setting,value
"CNC(=O)CCc1cc(-c2ccc(-c3ccc(C(F)(F)F)cc3)cc2)n(-c2ccc(N3CCNCC3)cc2)n1 [Compound 2, N-methyl-3-(1-(4-(piperazin-1-yl)phenyl)-5-(4′-(trifluoromethyl)-[1,1′-biphenyl]-4-yl)-1H-pyrazol-3-yl)propanamide]","selectivity of cytotoxicity, cancer cells versus nonmalignant cells",[1],selective cytotoxicity for cancer cells versus their nonmalignant counterparts
same,"antiproliferative activity, relative potency among compounds 1-9",[2],most potent among the nine compounds
same,selective inhibition of Akt-S473 phosphorylation (PDK2 inhibitory activity),[3],marked selective inhibition of Akt-S473 phosphorylation
same,inhibition of PC-3 tumor growth relative to vehicle-treated controls,"[4]; 25 mg/kg once daily oral, P=0.10",42%
same,inhibition of PC-3 tumor growth relative to vehicle-treated controls,"[4]; 50 mg/kg once daily oral, P=0.03",56%
same,changes in body weight,[4]; 25 or 50 mg/kg once daily oral,nor significant changes in body weight
same,"tolerability, signs of toxicity",[4]; 25 or 50 mg/kg once daily oral,no overt signs of toxicity
same,phospho-S473-Akt levels,[5],marked and selective decrease
same,phosphorylation of GSK3β,[5],reduced the phosphorylation
"CNC(=O)CCc1cc(-c2ccc3c(ccc4ccccc43)c2)n(-c2ccc(N3CCNCC3)cc2)n1 [Compound 13, N-methyl-3-(5-(phenanthren-2-yl)-1-(4-(piperazin-1-yl)phenyl)-1H-pyrazol-3-yl)propanamide]",phospho-Akt-S473 relative to phospho-Akt-T308,[6],strong reduction
same,suppressive activity against GSK3β phosphorylation,[6],did not exhibit substantial suppressive activity
same,pIC50,[2],5.52 to 5.70
"CNC(=O)CCc1cc(-c2ccc(-c3ccc(C)cc3)cc2)n(-c2ccc(N3CCNCC3)cc2)n1 [Compound 11, N-methyl-3-(5-(4′-methyl-[1,1′-biphenyl]-4-yl)-1-(4-(piperazin-1-yl)phenyl)-1H-pyrazol-3-yl)propanamide]",pIC50,[2],5.52 to 5.70
"CCNC(=O)c1cc(-c2ccc(-c3ccc(C(F)(F)F)cc3)cc2)n(-c2ccc(NC(=O)CCN)cc2)n1 [Compound 5, 1-(4-(3-aminopropanamido)phenyl)-N-ethyl-5-(4′-(trifluoromethyl)-[1,1′-biphenyl]-4-yl)-1H-pyrazole-3-carboxamide]",pIC50,[7],5.30 to 5.40
same,pIC50,[8],5.30 to 5.40
"CCNC(=O)CCc1cc(-c2ccc(-c3ccc(C(F)(F)F)cc3)cc2)n(-c2ccc(N3CCNCC3)cc2)n1 [Compound 3, N-ethyl-3-(1-(4-(piperazin-1-yl)phenyl)-5-(4′-(trifluoromethyl)-[1,1′-biphenyl]-4-yl)-1H-pyrazol-3-yl)propanamide]","antiproliferative activity, relative potency among compounds 1-9",[2],most potent among the nine compounds
same,selective inhibition of Akt-S473 phosphorylation (PDK2 inhibitory activity),[3],marked selective inhibition of Akt-S473 phosphorylation
